Legend:
large crabgrass [1] = assay: Foliar treatment test (2); type: in vivo; settings: 20th day after treatment; further: ranges in brackets are in %
Protocol: (§1) 90 Parts by weight of the above carrier and 10 parts by weight of each of Compounds obtained in the above Preparation Examples were uniformly pulverized and mixed to obtain herbicides. Further, for Herbicide Comparative Examples, comparative herbicides were prepared by uniformly pulverizing and mixing 90 parts by weight of the above carrier and 10 parts by weight of each of the following Compounds x, y, A, B and C.
(§2) (2) Biological Test (Foliar Treatment Test, Herbicide Examples 1 and 2 and Herbicide Comparative Examples 1 and 2)
(§3) Seeds of weeds such as large crabgrass, barnyard grass, green foxtail, cocklebur, velvetleaf and slender amaranth and seeds of corn, wheat and barley were sown in 1/5,000-are Wagner pots filled with upland soil, and covered with upland soil. The seeds were grown in a greenhouse, and at the stage of 1˜2 leaves of these plants, a predetermined amount of the herbicide prepared in the above (1) was suspended in water and uniformly sprayed onto leaf and stalk portions at a rate of 200 liter/10 are. Thereafter, the plants were grown in the greenhouse, and on 20th day after the treatment, the herbicide was evaluated for herbicidal efficacy.
(§4) The herbicidal efficacy and phytotoxcity to crops were shown on the basis of the following ratings.
(§5) The ratio of remaining plant weight to non-treated was determined on the basis of the ratio of remaining plant weight to non-treated=(remaining plant weight in treated plot/remaining plant weight in non-treated plot)×100. This is also applicable to biological tests hereinafter.

slender amaranth [2] = assay: Foliar treatment test (2); type: in vivo; settings: 20th day after treatment; further: ranges in brackets are in %
Protocol: as §1, §2, §3, §4, §5

green foxtail [3] = assay: Foliar treatment test (2); type: in vivo; settings: 20th day after treatment; further: ranges in brackets are in %
Protocol: as §1, §2, §3, §4, §5

barnyard grass [4] = assay: Foliar treatment test (2); type: in vivo; settings: 20th day after treatment; further: ranges in brackets are in %
Protocol: as §1, §2, §3, §4, §5

cocklebur [5] = assay: Foliar treatment test (2); type: in vivo; settings: 20th day after treatment; further: ranges in brackets are in %
Protocol: as §1, §2, §3, §4, §5

velvetleaf [6] = assay: Foliar treatment test (2); type: in vivo; settings: 20th day after treatment; further: ranges in brackets are in %
Protocol: as §1, §2, §3, §4, §5

corn = assay: Upland soil treatment test (5), phytotoxicity; type: in vivo; settings: dosage 100 g a.i./hectare, 20th day after treatment
Protocol: as §1
(§6) (5) Biological Test (Upland Soil Treatment Test, Herbicide Examples 10-26 and Comparative Example 9)
as §3, with “Then,” for “The seeds were grown in a greenhouse, and at the stage of 1˜2 leaves of these plants,”, “the soil surface.” for “leaf and stalk portions at a rate of 200 liter/10 are.”
(§7) The dosage of each herbicide is indicated as an amount of the active ingredient per hectare. Further, air-dried weight were measured, and herbicidal efficacy and the pytotoxicity to corn are shown on the basis of the ratings described below.

large crabgrass [7] = assay: Upland soil treatment test (3); type: in vivo; settings: 20th day after treatment; further: ranges in brackets are in %
Protocol: as §1
(§8) (3) Biological Test (Upland Soil Treatment Test, Herbicide Examples 3 and 4 and Herbicide Comparative Examples 3 and 4)
as §3, with “barnyardgrass,” for “barnyard grass,”, “Then,” for “The seeds were grown in a greenhouse, and at the stage of 1˜2 leaves of these plants,”, “the soil surface.” for “leaf and stalk portions at a rate of 200 liter/10 are.”
(§9) The herbicidal efficacy and the phytotoxicity to crops are shown on the basis of the ratings described in (2) Foliar treatment test.

slender amaranth [8] = assay: Upland soil treatment test (3); type: in vivo; settings: 20th day after treatment; further: ranges in brackets are in %
Protocol: as §1, §8
as §3, with “barnyardgrass,” for “barnyard grass,”, “Then,” for “The seeds were grown in a greenhouse, and at the stage of 1˜2 leaves of these plants,”, “the soil surface.” for “leaf and stalk portions at a rate of 200 liter/10 are.”
as §9

green foxtail [9] = assay: Upland soil treatment test (3); type: in vivo; settings: 20th day after treatment; further: ranges in brackets are in %
Protocol: as §1, §8
as §3, with “barnyardgrass,” for “barnyard grass,”, “Then,” for “The seeds were grown in a greenhouse, and at the stage of 1˜2 leaves of these plants,”, “the soil surface.” for “leaf and stalk portions at a rate of 200 liter/10 are.”
as §9

barnyard grass [10] = assay: Upland soil treatment test (3); type: in vivo; settings: 20th day after treatment; further: ranges in brackets are in %
Protocol: as §1, §8
as §3, with “barnyardgrass,” for “barnyard grass,”, “Then,” for “The seeds were grown in a greenhouse, and at the stage of 1˜2 leaves of these plants,”, “the soil surface.” for “leaf and stalk portions at a rate of 200 liter/10 are.”
as §9

cocklebur [11] = assay: Upland soil treatment test (3); type: in vivo; settings: 20th day after treatment; further: ranges in brackets are in %
Protocol: as §1, §8
as §3, with “barnyardgrass,” for “barnyard grass,”, “Then,” for “The seeds were grown in a greenhouse, and at the stage of 1˜2 leaves of these plants,”, “the soil surface.” for “leaf and stalk portions at a rate of 200 liter/10 are.”
as §9

velvetleaf [12] = assay: Upland soil treatment test (3); type: in vivo; settings: 20th day after treatment; further: ranges in brackets are in %
Protocol: as §1, §8
as §3, with “barnyardgrass,” for “barnyard grass,”, “Then,” for “The seeds were grown in a greenhouse, and at the stage of 1˜2 leaves of these plants,”, “the soil surface.” for “leaf and stalk portions at a rate of 200 liter/10 are.”
as §9

large crabgrass [13] = assay: Upland soil treatment test (5); type: in vivo; settings: dosage 100 g a.i./hectare, 20th day after treatment; further: ranges in brackets are in %
Protocol: as §1, §6
as §3, with “Then,” for “The seeds were grown in a greenhouse, and at the stage of 1˜2 leaves of these plants,”, “the soil surface.” for “leaf and stalk portions at a rate of 200 liter/10 are.”
as §7

slender amaranth [14] = assay: Upland soil treatment test (5); type: in vivo; settings: dosage 100 g a.i./hectare, 20th day after treatment; further: ranges in brackets are in %
Protocol: as §1, §6
as §3, with “Then,” for “The seeds were grown in a greenhouse, and at the stage of 1˜2 leaves of these plants,”, “the soil surface.” for “leaf and stalk portions at a rate of 200 liter/10 are.”
as §7

green foxtail [15] = assay: Upland soil treatment test (5); type: in vivo; settings: dosage 100 g a.i./hectare, 20th day after treatment; further: ranges in brackets are in %
Protocol: as §1, §6
as §3, with “Then,” for “The seeds were grown in a greenhouse, and at the stage of 1˜2 leaves of these plants,”, “the soil surface.” for “leaf and stalk portions at a rate of 200 liter/10 are.”
as §7

barnyard grass [16] = assay: Upland soil treatment test (5); type: in vivo; settings: dosage 100 g a.i./hectare, 20th day after treatment; further: ranges in brackets are in %
Protocol: as §1, §6
as §3, with “Then,” for “The seeds were grown in a greenhouse, and at the stage of 1˜2 leaves of these plants,”, “the soil surface.” for “leaf and stalk portions at a rate of 200 liter/10 are.”
as §7

cocklebur [17] = assay: Upland soil treatment test (5); type: in vivo; settings: dosage 100 g a.i./hectare, 20th day after treatment; further: ranges in brackets are in %
Protocol: as §1, §6
as §3, with “Then,” for “The seeds were grown in a greenhouse, and at the stage of 1˜2 leaves of these plants,”, “the soil surface.” for “leaf and stalk portions at a rate of 200 liter/10 are.”
as §7

velvetleaf [18] = assay: Upland soil treatment test (5); type: in vivo; settings: dosage 100 g a.i./hectare, 20th day after treatment; further: ranges in brackets are in %
Protocol: as §1, §6
as §3, with “Then,” for “The seeds were grown in a greenhouse, and at the stage of 1˜2 leaves of these plants,”, “the soil surface.” for “leaf and stalk portions at a rate of 200 liter/10 are.”
as §7

SMILES	Herbicidal Efficacy large crabgrass (large crabgrass [1]; dosage 3 g a.i./are)	Herbicidal Efficacy large crabgrass (large crabgrass [1]; dosage 10 g a.i./are)	Herbicidal Efficacy slender amaranth (slender amaranth [2]; dosage 3 g a.i./are)	Herbicidal Efficacy slender amaranth (slender amaranth [2]; dosage 10 g a.i./are)	Herbicidal Efficacy green foxtail (green foxtail [3]; dosage 3 g a.i./are)	Herbicidal Efficacy green foxtail (green foxtail [3]; dosage 10 g a.i./are)	Herbicidal Efficacy barnyard grass (barnyard grass [4]; dosage 3 g a.i./are)	Herbicidal Efficacy barnyard grass (barnyard grass [4]; dosage 10 g a.i./are)	Herbicidal Efficacy cocklebur (cocklebur [5]; dosage 3 g a.i./are)	Herbicidal Efficacy cocklebur (cocklebur [5]; dosage 10 g a.i./are)	Herbicidal Efficacy velvetleaf (velvetleaf [6]; dosage 3 g a.i./are)	Herbicidal Efficacy velvetleaf (velvetleaf [6]; dosage 10 g a.i./are)	Phyto-toxicity to corn (corn)	Herbicidal Efficacy large crabgrass (large crabgrass [7]; dosage 3 g a.i./are)	Herbicidal Efficacy large crabgrass (large crabgrass [7]; dosage 10 g a.i./are)	Herbicidal Efficacy slender amaranth (slender amaranth [8]; dosage 3 g a.i./are)	Herbicidal Efficacy slender amaranth (slender amaranth [8]; dosage 10 g a.i./are)	Herbicidal Efficacy green foxtail (green foxtail [9]; dosage 3 g a.i./are)	Herbicidal Efficacy green foxtail (green foxtail [9]; dosage 10 g a.i./are)	Herbicidal Efficacy barnyard grass (barnyard grass [10]; dosage 3 g a.i./are)	also measured
CCn1ncc(C(=O)c2cc(C)c3c(c2C)C(C)(C)CCS3(=O)=O)c1O [Compound 1, 4,4,5,8-tetramethyl-6-(1-ethyl-5-hydroxypyrazol-4-yl)carbonyl-thiochroman-1,1-dioxide]	5 (0)	5 (0)	5 (0)	5 (0)	5 (0)	5 (0)	5 (0)	5 (0)	5 (0)	5 (0)	5 (0)	5 (0)	0 (100)	5 (0)	5 (0)	5 (0)	5 (0)	5 (0)	5 (0)	5 (0)	Herbicidal Efficacy barnyard grass (barnyard grass [10]; dosage 10 g a.i./are): 5 (0); Herbicidal Efficacy cocklebur (cocklebur [11]; dosage 3 g a.i./are): 5 (0); Herbicidal Efficacy cocklebur (cocklebur [11]; dosage 10 g a.i./are): 5 (0); Herbicidal Efficacy velvetleaf (velvetleaf [12]; dosage 3 g a.i./are): 5 (0); Herbicidal Efficacy velvetleaf (velvetleaf [12]; dosage 10 g a.i./are): 5 (0); melting point: 208.8 to 209.3 °C; Herbicidal Efficacy large crabgrass (large crabgrass [13]): 5 (0); Herbicidal Efficacy slender amaranth (slender amaranth [14]): 5 (0); Herbicidal Efficacy green foxtail (green foxtail [15]): 5 (0); Herbicidal Efficacy barnyard grass (barnyard grass [16]): 5 (0); Herbicidal Efficacy cocklebur (cocklebur [17]): 5 (0); Herbicidal Efficacy velvetleaf (velvetleaf [18]): 5 (0)
CCn1ncc(C(=O)c2ccc3c(c2C)C(C)(C)CCS3)c1O [Compound 2]	5 (0)	5 (0)	3 (21-40)	5 (0)	3 (21-40)	5 (0)	4 (1-20)	5 (0)	5 (0)	5 (0)	4 (1-20)	5 (0)	0 (100)	5 (0)	5 (0)	5 (0)	5 (0)	5 (0)	5 (0)	5 (0)	Herbicidal Efficacy barnyard grass (barnyard grass [10]; dosage 10 g a.i./are): 5 (0); Herbicidal Efficacy cocklebur (cocklebur [11]; dosage 3 g a.i./are): 5 (0); Herbicidal Efficacy cocklebur (cocklebur [11]; dosage 10 g a.i./are): 5 (0); Herbicidal Efficacy velvetleaf (velvetleaf [12]; dosage 3 g a.i./are): 5 (0); Herbicidal Efficacy velvetleaf (velvetleaf [12]; dosage 10 g a.i./are): 5 (0); Herbicidal Efficacy large crabgrass (large crabgrass [13]): 5 (0); Herbicidal Efficacy slender amaranth (slender amaranth [14]): 5 (0); Herbicidal Efficacy green foxtail (green foxtail [15]): 5 (0); Herbicidal Efficacy barnyard grass (barnyard grass [16]): 5 (0); Herbicidal Efficacy cocklebur (cocklebur [17]): 5 (0); Herbicidal Efficacy velvetleaf (velvetleaf [18]): 5 (0)

— patent publication US6677460B1, “Aromatic carboxylic acid bicyclic sulfur compounds” (Idemitsu Kosan Company, Limited, priority 1993, dated 2004)
